# According to PubChem BioAssay (NCI):
#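 Here, GI50 denotes the concentration required for 50% inhibition of growth. The concentration for full growth arrest is given as TGI.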
# Key:
# Test in all cases: NCI-60 cell line screen, 384-well format
# CAKI-1 renal = system: CAKI-1 renal
# NCI-H322M lung = system: NCI-H322M lung
# MOLT-4 leukemia = system: MOLT-4 leukemia
# MALME-3M melanoma = system: MALME-3M melanoma
# RXF 393 renal = system: RXF 393 renal
# SNB-19 CNS = system: SNB-19 CNS
# HS 578T breast = system: HS 578T breast
# SF-268 CNS = system: SF-268 CNS
# OVCAR-4 ovarian = system: OVCAR-4 ovarian
# SK-MEL-2 melanoma = system: SK-MEL-2 melanoma
# HCT-15 colon = system: HCT-15 colon
# NCI-H226 lung = system: NCI-H226 lung
# UACC-257 melanoma = system: UACC-257 melanoma
# EKVX NSCLC = system: EKVX NSCLC
# MDA-MB-231 breast = system: MDA-MB-231 breast
# T-47D breast = system: T-47D breast
# KM12 colon = system: KM12 colon
# 786-0 renal = system: 786-0 renal
# LOX IMVI melanoma = system: LOX IMVI melanoma
# COLO 205 colon = system: COLO 205 colon
# SK-MEL-28 melanoma = system: SK-MEL-28 melanoma
# RPMI-8226 leukemia = system: RPMI-8226 leukemia
# NCI-H460 NSCLC = system: NCI-H460 NSCLC
# HOP-62 NSCLC = system: HOP-62 NSCLC
# HT29 colon = system: HT29 colon
# K-562 leukemia = system: K-562 leukemia
# A549 NSCLC = system: A549 NSCLC
# CCRF-CEM leukemia = system: CCRF-CEM leukemia
# NCI-H522 lung = system: NCI-H522 lung
# SK-OV-3 ovarian = system: SK-OV-3 ovarian
# UACC-62 melanoma = system: UACC-62 melanoma
# SF-295 CNS = system: SF-295 CNS
# OVCAR-3 ovarian = system: OVCAR-3 ovarian
# OVCAR-5 ovarian = system: OVCAR-5 ovarian
# MDA-MB-435 melanoma = system: MDA-MB-435 melanoma
# UO-31 renal = system: UO-31 renal
# SF-539 CNS = system: SF-539 CNS
# HL-60(TB) leukemia = system: HL-60(TB) leukemia
# MDA-MB-468 breast = system: MDA-MB-468 breast
# TK-10 renal = system: TK-10 renal
# PC-3 prostate = system: PC-3 prostate
# SK-MEL-5 melanoma = system: SK-MEL-5 melanoma
# SNB-75 CNS = system: SNB-75 CNS
# U251 glioblastoma = system: U251 glioblastoma
# SN12C renal = system: SN12C renal
# DU-145 prostate = system: DU-145 prostate
# NCI/ADR-RES ovarian = system: NCI/ADR-RES ovarian
# SW-620 colon = system: SW-620 colon
# IGROV1 ovarian = system: IGROV1 ovarian
# HCT-116 colon = system: HCT-116 colon
# A498 renal = system: A498 renal
# BT-549 breast = system: BT-549 breast
smiles,measurement,setting,value
CC[C@H](CO)Nc1nc(NCc2ccccc2)c2ncn(C(C)C)c2n1,GI50,CAKI-1 renal,24 µM
same,TGI,CAKI-1 renal,77.4 µM
same,GI50,NCI-H322M lung,19.1 µM
same,TGI,NCI-H322M lung,49.9 µM
same,GI50,MOLT-4 leukemia,17.3 µM
same,TGI,MOLT-4 leukemia,32.1 µM
same,GI50,MALME-3M melanoma,24.8 µM
same,TGI,MALME-3M melanoma,57.8 µM
same,GI50,RXF 393 renal,14.1 µM
same,TGI,RXF 393 renal,28.2 µM
same,GI50,SNB-19 CNS,26.8 µM
same,TGI,SNB-19 CNS,> 100 µM
same,GI50,HS 578T breast,15.2 µM
same,TGI,HS 578T breast,32.3 µM
same,GI50,SF-268 CNS,15.3 µM
same,TGI,SF-268 CNS,35.6 µM
same,GI50,OVCAR-4 ovarian,32 µM
same,TGI,OVCAR-4 ovarian,> 100 µM
same,GI50,SK-MEL-2 melanoma,36.7 µM
same,TGI,SK-MEL-2 melanoma,63.6 µM
same,GI50,HCT-15 colon,19.4 µM
same,TGI,HCT-15 colon,60.3 µM
same,GI50,NCI-H226 lung,22.4 µM
same,TGI,NCI-H226 lung,68.3 µM
same,GI50,UACC-257 melanoma,21.2 µM
same,TGI,UACC-257 melanoma,59.5 µM
same,GI50,EKVX NSCLC,23 µM
same,TGI,EKVX NSCLC,59.6 µM
same,GI50,MDA-MB-231 breast,22.4 µM
same,TGI,MDA-MB-231 breast,62.9 µM
same,GI50,T-47D breast,24.9 µM
same,TGI,T-47D breast,76.1 µM
same,GI50,KM12 colon,18.8 µM
same,TGI,KM12 colon,43.6 µM
same,GI50,786-0 renal,22.7 µM
same,TGI,786-0 renal,61.5 µM
same,GI50,LOX IMVI melanoma,19.3 µM
same,TGI,LOX IMVI melanoma,37.5 µM
same,GI50,COLO 205 colon,21.3 µM
same,TGI,COLO 205 colon,52.8 µM
same,GI50,SK-MEL-28 melanoma,16.3 µM
same,TGI,SK-MEL-28 melanoma,36.4 µM
same,GI50,RPMI-8226 leukemia,17 µM
same,TGI,RPMI-8226 leukemia,31.6 µM
same,GI50,NCI-H460 NSCLC,16.2 µM
same,TGI,NCI-H460 NSCLC,31.8 µM
same,GI50,HOP-62 NSCLC,21.8 µM
same,TGI,HOP-62 NSCLC,62.2 µM
same,GI50,HT29 colon,20.1 µM
same,TGI,HT29 colon,47.2 µM
same,GI50,K-562 leukemia,36.1 µM
same,TGI,K-562 leukemia,> 100 µM
same,GI50,A549 NSCLC,27.5 µM
same,TGI,A549 NSCLC,> 100 µM
same,GI50,CCRF-CEM leukemia,16.8 µM
same,TGI,CCRF-CEM leukemia,33.3 µM
same,GI50,NCI-H522 lung,18.3 µM
same,TGI,NCI-H522 lung,50.6 µM
same,GI50,SK-OV-3 ovarian,36.5 µM
same,TGI,SK-OV-3 ovarian,> 100 µM
same,GI50,UACC-62 melanoma,13.7 µM
same,TGI,UACC-62 melanoma,27.3 µM
same,GI50,SF-295 CNS,25.2 µM
same,TGI,SF-295 CNS,78.6 µM
same,GI50,OVCAR-3 ovarian,17.2 µM
same,TGI,OVCAR-3 ovarian,43.9 µM
same,GI50,OVCAR-5 ovarian,24.8 µM
same,TGI,OVCAR-5 ovarian,> 100 µM
same,GI50,MDA-MB-435 melanoma,23.2 µM
same,TGI,MDA-MB-435 melanoma,64.6 µM
same,GI50,UO-31 renal,20.9 µM
same,TGI,UO-31 renal,45 µM
same,GI50,SF-539 CNS,19.1 µM
same,TGI,SF-539 CNS,40.3 µM
same,GI50,HL-60(TB) leukemia,14.8 µM
same,TGI,HL-60(TB) leukemia,28.1 µM
same,GI50,MDA-MB-468 breast,19.8 µM
same,TGI,MDA-MB-468 breast,37.9 µM
same,GI50,TK-10 renal,25 µM
same,TGI,TK-10 renal,83.6 µM
same,GI50,PC-3 prostate,21 µM
same,TGI,PC-3 prostate,56.1 µM
same,GI50,SK-MEL-5 melanoma,15.4 µM
same,TGI,SK-MEL-5 melanoma,31.8 µM
same,GI50,SNB-75 CNS,16.6 µM
same,TGI,SNB-75 CNS,35.4 µM
same,GI50,U251 glioblastoma,28.2 µM
same,TGI,U251 glioblastoma,> 100 µM
same,GI50,SN12C renal,21.1 µM
same,TGI,SN12C renal,52.1 µM
same,GI50,DU-145 prostate,20.9 µM
same,TGI,DU-145 prostate,56.3 µM
same,GI50,NCI/ADR-RES ovarian,22.3 µM
same,TGI,NCI/ADR-RES ovarian,75.2 µM
same,GI50,SW-620 colon,29.5 µM
same,TGI,SW-620 colon,89.9 µM
same,GI50,IGROV1 ovarian,26.5 µM
same,TGI,IGROV1 ovarian,95.8 µM
same,GI50,HCT-116 colon,16.4 µM
same,TGI,HCT-116 colon,35.3 µM
same,GI50,A498 renal,27.2 µM
same,TGI,A498 renal,82.1 µM
same,GI50,BT-549 breast,15.9 µM
same,TGI,BT-549 breast,33.6 µM
